Laboratory results taken from patent US7208467B2, “Lipid-altering compositions for the treatment of infertility” (priority 2002, dated 2007).

Key:
SR-BI = experiment: Immunoblot of SR-BI expression in tissues of estrogen-treated rats; type: in vivo, rat
Experimental: Tissues of estrogen-treated rats were screened for expression of SR-BI as described above following treatment of rats with 17-α-ethylenyl estradiol (estrogen). The rats were treated for five consecutive days with subcutaneous injections of 5 mg/kg 17-α-ethylenyl estradiol in propylene glycol or with propylene glycol alone (sham-injected).

LDL receptor = experiment: Immunoblot of LDL receptor expression in estrogen-treated rats; type: in vivo; settings: rat, liver
HDL lipid uptake = HDL lipid uptake in vivo after DiI-HDL injection in estrogen-treated rats; set-up: species or system rat; settings: DiI-HDL 800 μg protein/kg into jugular vein, 1 hour
Experimental: For analysis of HDL lipid uptake in vivo, rats were anesthetized with nembutal or metafane before injection of DiI-HDL (800 μg protein/kg) into the left jugular vein. 1 hour later the anesthetized animals were perfused with oxygenated HBSS. Frozen sections (12 μm thick) of sucrose-infiltrated tissues were prepared. Tissue sections were viewed and photographed with a Zeiss photomicroscope III with the appropriate filter package.

[1] = Plasma total cholesterol and FPLC lipoprotein profile of PROBUCOL-fed mice; type: in vivo; settings: for Reduction of plasma cholesterol levels: 0.5% PROBUCOL chow; for Average plasma total cholesterol (±SEM): 0.5% PROBUCOL-enriched chow
Experimental: (§1) • Lipoprotein analysis. Plasma, collected from Avertin anesthetized mice, was size fractionated by FPLC, and the total cholesterol in each fraction or in unfractionated plasma was determined as described previously (Rigotti, A., et al. 1997 Proc. Natl. Acad. Sci. USA. 94:12610–12615) or by using a commercial kit (Wako Chemical USA Inc., Richmond, Va., USA). For apoA-I KO mice, 500 μl of pooled plasma was used for FPLC analyses. • Animals. […] Opinl Lipidol. 11:123-131 (2000)), apoA-I KO (Kozarsky, et al., Nature 387414–417 (1997)) (C57BL/6; The Jackson Laboratory, Bar Harbor, Me., USA), and RAG-2 KO (mixed C57BL/6×129×BALB/c background; gift from Jianzhu Chen, Massachusetts Institute of Technology). Double SR-BI/apoA-I KO and SR-BI/RAG-2 KO mice were produced by (a) mating SR-BI KO males with apoA-I KO or RAG-2-KO females, (b) transferring the resulting embryos into Swiss Webster recipients, and (c) intercrossing the double heterozygous offspring.

[2] = tested on: SR-BI KO and wild-type female mice; experiment: Fertility of female mice mated with wild-type males; type: in vivo
Experimental: as §1
Colonies were maintained by crossing double- KO males with females heterozygous for the SR-BI null mutation and homozygous for the apoA-I or RAG-2 mutation to optimize the low yield of SR-BI homozygotes. It has been possible to obtain only a few homozygous null SR-BI KO mice on an essentially pure C57BL/6 background (backcrossed nine times to pure C57BL/6 mice). Experiments with these (n=3; 4- month matings, no litters) and additional mixed background SR-BI KO mice (n=19) confirmed the extremely low fertility of female SR-BI KO mice. PCR was used for genotyping the various mutant mouse lines. The primers for analyses were as follows: for SR-BI, the primers were as described by Rigotti, et al., Proc. Natl. Acad. Sci. USA 94:12610–12615 (1997); for apoA-I, the following set of four primers were used: 5′ -[…]-3′ (SEQ ID NO:8), 5′-[…]-3′(SEQ ID NO:9), 5′-[…]-3′ (SEQ ID NO:10), and 5′-[…]-3 (SEQ ID NO:11)′ (sequences and protocols originally from the Jackson Laboratories), or primers 5′-[…]-3″ (SEQ ID NO: 12) and 5′-[…]-3′(SEQ ID NO:13); and for RAG-2, the primers were 5′-[…]-3″(SEQ ID NO:14) and 5′-[…]-3″ (SEQ ID NO:15) (kindly provided by Charles Whitehurst, Massachusetts Institute of Technology). All animal studies were approved by the Massachusetts Institute of Technology Committee on Animal Care. To test the fertility of genetically, surgically, or pharmacologically manipulated female mice, virgin females were housed continuously with wild-type males, and numbers of litters and pups were counted during the mating period. […] Otherwise shorter 1- to 2-month mating periods were used when the fertile females produced litters relatively quickly. • Ovary transplantation. Donor SR-BI KO or control wild-type mice (5–6 weeks of age) were sacrificed by cervical dislocation, and the ovaries were removed. Hosts (RAG-2 KO mice), 4–6 weeks of age, were anesthetized with 2.5% Avertin (intraperitoneally), and ovary transfer surgery was performed. In brief, ovaries of the host mice were removed from the surrounding ovarian bursa by cutting the side opposite to the ovarian hilus. Ovaries from the donor mice were then inserted into the ovarian bursa and the bursa closed with Vetbond tissue adhesive (3M Animal Care Products, St. Paul, Minn., USA). In sham ovary transplants (n=5), ovaries of SR-BI KO mice were removed and reinserted into the same mouse (either unilaterally when the contralateral oviduct was cut, n=1, or bilaterally, n=4). […]

[3] = estrogen-treated versus control rats
[4] = rat, 5 mg/kg subcutaneous for five consecutive days, versus sham-injected
[5] = PROBUCOL-fed SR-BI KO females, n=14, 1- to 2-month mating

| Molecule | SR-BI expressed in the liver (SR-BI; [3]) | SR-BI in the ovaries (SR-BI; [3]) | SR-BI expression in adrenal membranes (SR-BI; [4]) | SR-BI levels in tissues showing trace signal (lung, testes, skin) (SR-BI; [4]) | SR-BI expression (immunoblot compared with LDL receptor) (SR-BI; rat, estrogen-treated, liver) | LDL receptor expression (LDL receptor) | DiI-HDL fluorescence in the ovaries (HDL lipid uptake) | Uptake of lipid into adrenal tissues (HDL lipid uptake) | Reduction of plasma cholesterol levels ([1]; SR-BI KO mice) | Average plasma total cholesterol (±SEM) ([1]; SR-BI KO mice, n=14) [mg/dL] | Effect on apparent sizes of the HDLs ([1]; wild-type and SR-BI KO mice, FPLC) | Reduction of plasma cholesterol levels ([1]; wild-type mice) | Average plasma total cholesterol (±SEM) ([1]; wild-type mice, n=9) [mg/dL] | Average time from mating to delivery ([2]; PROBUCOL-fed SR-BI KO females) [days] | Average litter size [2, 5] | Percentage of females producing litters [2, 5] [%] | Average litter size ([2]; PROBUCOL-fed wild-type females, n=9, 1- to 2-month mating) | Restoration of fertility ([2]; SR-BI KO females, treatment began 1–3.5 weeks before mating and continued throughout) |
| --- | --- | --- | --- | --- | --- | --- | --- | --- | --- | --- | --- | --- | --- | --- | --- | --- | --- | --- |
| 17-α-ethylenyl estradiol [estrogen] | significantly reduced levels | elevated levels | upregulation of SR-BI | no change in SR-BI levels | dramatically downregulated | tremendous upregulation | elevated levels | dramatically increased |  |  |  |  |  |  |  |  |  |  |
| CC(C)(Sc1cc(C(C)(C)C)c(O)c(C(C)(C)C)c1)Sc1cc(C(C)(C)C)c(O)c(C(C)(C)C)c1 [PROBUCOL™, 4,4′-(isopropylidenedithio) bis(2,6-di-tert-butylphenol)] |  |  |  |  |  |  |  |  | approximately 49% | 107.8 ± 6.3 | without substantially altering the apparent sizes of the HDLs | approximately 67% | 33.6 ± 3.4 | 28.4 | 5.7 | 93 | 5.3 | completely restored fertility |
